Measurements: PMC5675618, “Identification and validation of FGFR2 peptide for detection of early Barrett's neoplasia” (Oncotarget, 2017)

Tests used:
[1] = system: QhTERT cells that express FGFR2b; experiment: Confocal fluorescence microscopy, binding to QhTERT cells that express FGFR2b; type: cell-based, human
Text: All human esophageal specimens were obtained with written, informed patient consent per approval and guidelines of the University of Michigan Institutional Review Board (IRB). Human non-dysplastic Barrett's esophagus (BE) cells immortalized with hTert (QhTERT) were obtained from the American Type Culture Collection (ATCC) and cultured in keratinocyte-serum free medium containing bovine pituitary extract and human recombinant EGF (ThermoFisher #17005042). QhTERT cells with stable expression of FGFR2b or FGFR2c were provided (DGB). We cultured these cells with keratinocyte-serum free medium containing bovine pituitary extract and human recombinant EGF (ThermoFisher #17005042) and added 1 μg/mL of puromycin-dihydrochloride (Invitrogen #A11138-03). All cells were cultured at 37°C in 5% CO2, and were passaged using 0.25% EDTA containing trypsin (Mediatech Inc). A hemocytometer was used to determine cell number. Peptide synthesis reagents were obtained from either Anaspec or AAPPTEC with the highest grade available (>99% purity) and used without further purification. Solvents and other chemical reagents were obtained from Sigma-Aldrich, unless otherwise stated.
~10^3 QhTERT/wt, QhTERT/FGFR2b, and QhTERT/FGFR2c cells were grown on cover glass to ~80% confluence. The cells were washed with PBS 1X and incubated with 1 μM of either peptide for 10 min at RT. The cells were then washed 3X in PBS, fixed with 4% paraformaldehyde (PFA) for 5 min, washed 1X with PBS, and then mounted on glass slides with ProLong Gold reagent containing DAPI (Invitrogen). Confocal fluorescence images were collected with Cy5.5 and DAPI filters (Leica Inverted SP5X 2-Photon FLIM confocal microscopes) using a 63X oil-immersion objective. Fluorescence intensities from 3 cells in each of 3 independent images were quantified using custom Matlab (Mathworks) software.

[2] = system: QhTERT cells that express FGFR2c; experiment: Apparent dissociation constant by flow cytometry; type: binding, human; details: 0 to 200 nM in PBS in 25 nM increments, 4°C, 1 hour; mean fluorescence intensity by flow cytometry; non-linear fit R^2 = 0.96; representative of 3 independent experiments
Description: We measured the apparent dissociation constant kd for peptide binding to cells to assess binding affinity. The Cy5.5-labeled peptide was serially diluted in PBS at concentrations ranging from 0 to 200 nM in 25 nM increments. QhTERT/FGFR2c cells (~10^5) were incubated with peptide at 4°C for 1 hour, washed with cold PBS, and the mean fluorescence intensities were measured using flow cytometry. The equilibrium dissociation constant kd=1/ka was calculated by performing a least squares fit of the data to the non-linear equation I=(I0+Imaxka[X])/([…]). I0 and Imax are the initial and maximum fluorescence intensities, corresponding to no peptide and at saturation, respectively, and [X] represents the concentration of the […] peptide. Prism 5.0 software (GraphPad Inc) was used to calculate kd.

[3] = system: sections of human gastric cancer; experiment: Confocal microscopy of staining of human gastric cancer ex vivo
Text: We observed good co-localization of peptide and antibody binding on merged images, Supplementary Figure 6C. Representative histology (H&E) for gastric cancer is shown, Supplementary Figure 6D. […] Representative histology (H&E) for normal stomach is shown, Supplementary Figure 6H.

For SRRPASFRTARE [SRR^*-Cy5.5], the “cell surface fluorescence signal / binding” value ([1]; 1 μM peptide, 10 min at RT, confocal, 63X) was “strong signal”, the “mean fluorescence intensity versus control SPS^*-Cy5.5” value ([1]; compared with wild-type, log-transformed, ANOVA, 3 random cells on each of 3 slides) was “significantly greater mean fluorescence intensity” and the Kd [2] was 68 nM. For the same sequence, the “mean fluorescence intensity, gastric cancer versus normal, SRR*-Cy5.5” value ([3]; P=7×10-17, paired two-sided t-test, 3 boxes of 30×30 μm2) was “significantly greater mean fluorescence intensity”, the “fluorescence intensity / binding, gastric cancer” value ([3]; gastric cancer sections ex vivo, n = 33 patients) was “strong fluorescence intensity” and the “staining, normal human stomach” value ([3]; normal stomach, comparison) was “minimal staining”.
